According to ChEMBL document CHEMBL5634123, “Design and synthesis of 1H-benzo[d]imidazole selective HDAC6 inhibitors with potential therapy for multiple myeloma” (Eur J Med Chem, 2023):
Activity calls are given as the source filed them. No cut-off for these calls is given here.

Experiments:
[1] = AUC (0 to t) in mouse at 10 mg/kg, po; type: ADME, organism-based; details: in vivo
[2] = Volume of distribution at steady state in mouse at 1 mg/kg, iv; type: ADME, organism-based; details: in vivo, read-out: Vdss
Histone deacetylase 8 = molecular target: T1, Histone deacetylase 8 (Homo sapiens, UniProt Q9BY41); assay: Inhibition of HDAC8 (unknown origin) preincubated for 10 mins followed by substrate addition by fluorescence based assay
T1 sequence (Q9BY41 whole entry): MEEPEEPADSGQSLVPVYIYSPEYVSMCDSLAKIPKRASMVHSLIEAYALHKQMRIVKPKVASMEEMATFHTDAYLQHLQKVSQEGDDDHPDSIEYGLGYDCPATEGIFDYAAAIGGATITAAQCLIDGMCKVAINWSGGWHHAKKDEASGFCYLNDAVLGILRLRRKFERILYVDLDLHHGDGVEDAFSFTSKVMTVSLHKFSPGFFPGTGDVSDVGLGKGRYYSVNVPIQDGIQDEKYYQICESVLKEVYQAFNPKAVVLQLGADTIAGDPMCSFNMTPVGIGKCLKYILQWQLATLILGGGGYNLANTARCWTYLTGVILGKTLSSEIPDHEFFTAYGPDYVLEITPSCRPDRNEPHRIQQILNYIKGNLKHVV

RPMI-8226 [3] = assay: Induction of apoptosis in human RPMI-8226 cells assessed as early apoptotic cells at 2.5 uM incubated for 24 hrs by Annexin V-FITC/PI staining based flow cytometry (reference value: 5.34 %); type: functional
[4] = Half life in mouse at 1 mg/kg, iv; type: ADME, organism-based; details: in vivo
Histone deacetylase 1 = Histone deacetylase 1 (Homo sapiens, UniProt Q13547); assay: Inhibition of HDAC1 (unknown origin) preincubated for 10 mins followed by substrate addition measured for 1 hr by fluorescence based assay
HCCLM3 = assay: Cytotoxicity against human HCCLM3 cells assessed as inhibition of cell viability incubated for 24 hrs by CCK8 assay; type: functional, cell-based; details: HCCLM3, 24 h
RPMI-8226 [5] = assay: Induction of apoptosis in human RPMI-8226 cells assessed as late apoptotic cells at 2.5 uM incubated for 24 hrs by Annexin V-FITC/PI staining based flow cytometry (reference value: 2.78 %); type: functional
RPMI-8226 [6] = assay: Induction of apoptosis in human RPMI-8226 cells assessed as increase in caspase-3 expression at 0.1 to 2.5 uM incubated for 24 hrs by Western blot analysis; type: functional, cell-based; details: dose 0.1-2.5 µM
[7] = Tmax in mouse at 10 mg/kg, po; type: ADME, organism-based; details: in vivo
RPMI-8226 [8] = assay: Induction of apoptosis in human RPMI-8226 cells assessed as early apoptotic cells at 0.5 uM incubated for 24 hrs by Annexin V-FITC/PI staining based flow cytometry (reference value: 5.34 %); type: functional
[9] = molecular target: T2, Protein deacetylase HDAC6 (Homo sapiens) (UniProt Q9UBN7); assay: Inhibition of HDAC6 in human RPMI-8226 cells assessed as increase in Ac-H3 expression at 2.5 uM incubated for 24 hrs by Western blot analysis; type: cell-based
T2 sequence (whole entry): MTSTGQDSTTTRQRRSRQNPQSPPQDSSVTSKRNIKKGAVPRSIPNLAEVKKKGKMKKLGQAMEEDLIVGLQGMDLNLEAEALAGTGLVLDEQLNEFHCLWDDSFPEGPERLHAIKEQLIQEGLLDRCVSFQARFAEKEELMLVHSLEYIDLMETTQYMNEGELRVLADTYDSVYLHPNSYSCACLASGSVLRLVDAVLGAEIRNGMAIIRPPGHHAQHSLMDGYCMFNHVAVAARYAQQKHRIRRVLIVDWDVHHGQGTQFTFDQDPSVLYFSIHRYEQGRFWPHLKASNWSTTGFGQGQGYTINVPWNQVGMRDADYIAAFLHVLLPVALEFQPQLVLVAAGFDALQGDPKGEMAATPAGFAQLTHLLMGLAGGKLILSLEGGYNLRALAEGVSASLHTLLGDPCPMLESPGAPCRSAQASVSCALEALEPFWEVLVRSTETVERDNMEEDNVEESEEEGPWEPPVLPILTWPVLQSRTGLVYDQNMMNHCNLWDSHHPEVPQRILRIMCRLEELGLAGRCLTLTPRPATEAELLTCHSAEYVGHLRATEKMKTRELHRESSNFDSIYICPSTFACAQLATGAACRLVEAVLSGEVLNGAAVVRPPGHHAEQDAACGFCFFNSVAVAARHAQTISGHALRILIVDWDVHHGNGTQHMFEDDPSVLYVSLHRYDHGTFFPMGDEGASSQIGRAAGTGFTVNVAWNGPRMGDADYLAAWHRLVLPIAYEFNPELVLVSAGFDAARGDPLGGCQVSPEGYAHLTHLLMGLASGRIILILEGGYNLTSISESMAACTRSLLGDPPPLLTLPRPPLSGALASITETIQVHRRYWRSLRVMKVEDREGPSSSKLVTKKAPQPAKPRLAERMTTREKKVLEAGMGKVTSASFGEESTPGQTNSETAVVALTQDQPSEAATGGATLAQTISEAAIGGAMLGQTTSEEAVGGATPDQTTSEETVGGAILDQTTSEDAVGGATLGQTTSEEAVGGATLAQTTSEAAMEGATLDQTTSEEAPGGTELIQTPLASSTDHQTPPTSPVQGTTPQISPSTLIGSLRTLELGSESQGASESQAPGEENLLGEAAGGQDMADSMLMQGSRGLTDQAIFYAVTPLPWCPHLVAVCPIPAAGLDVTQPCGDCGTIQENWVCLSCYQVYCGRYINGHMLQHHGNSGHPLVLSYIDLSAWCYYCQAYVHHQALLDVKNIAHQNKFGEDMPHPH

[10] = AUC (0 to t) in mouse at 1 mg/kg, iv; type: ADME, organism-based; details: in vivo
RPMI-8226 [11] = assay: Upregulation of Ac-H3 expression in human RPMI-8226 cells at 0.1 to 0.5 uM incubated for 24 hrs by Western blot analysis; type: functional, cell-based; details: dose 0.1-0.5 µM
[12] = Toxicity in Balb/c nude mouse xenografted with human RPMI-8226 cells assessed as adverse effect on serum total protein level at 10 to 40 mg/kg, po qd for 21 days administered consecutively; type: organism-based; details: in vivo, 504 h, dose 10-40 mg/kg, time 21 day
RPMI-8226 [13] = assay: Induction of cell cycle arrest at S phase in human RPMI-8226 cells at 2.5 uM incubated for 24 hrs by PI staining based flow cytometry (reference value: 58.5 %); type: functional
Histone deacetylase 3 = Histone deacetylase 3 (Homo sapiens, UniProt O15379); assay: Inhibition of HDAC3 (unknown origin) preincubated for 10 mins followed by substrate addition by fluorescence based assay
Histone deacetylase 5 = Histone deacetylase 5 (Homo sapiens, UniProt Q9UQL6); assay: Inhibition of HDAC5 (unknown origin) preincubated for 10 mins followed by substrate addition by fluorescence based assay
[14] = Half life in mouse at 10 mg/kg, po; type: ADME, organism-based; details: in vivo
[15] = Toxicity in Balb/c nude mouse xenografted with human RPMI-8226 cells assessed as adverse effect on lung at 10 to 40 mg/kg, po qd for 21 days administered consecutively by H and E staining based analysis; type: organism-based; details: in vivo, 504 h, dose 10-40 mg/kg, time 21 day

Sequence of Histone deacetylase 3 (O15379 whole entry): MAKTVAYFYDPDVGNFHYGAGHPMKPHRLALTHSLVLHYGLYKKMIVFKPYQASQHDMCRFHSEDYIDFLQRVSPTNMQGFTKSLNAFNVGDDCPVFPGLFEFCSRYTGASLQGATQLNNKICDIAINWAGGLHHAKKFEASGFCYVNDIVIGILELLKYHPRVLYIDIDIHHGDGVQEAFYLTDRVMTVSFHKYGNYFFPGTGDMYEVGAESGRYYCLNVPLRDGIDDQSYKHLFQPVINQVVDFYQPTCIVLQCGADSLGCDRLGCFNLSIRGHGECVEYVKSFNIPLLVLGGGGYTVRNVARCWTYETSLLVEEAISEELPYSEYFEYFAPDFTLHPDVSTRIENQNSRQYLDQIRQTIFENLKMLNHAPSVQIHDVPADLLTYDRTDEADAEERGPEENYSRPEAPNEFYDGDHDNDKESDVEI
Sequence of Histone deacetylase 5 (Q9UQL6 whole entry): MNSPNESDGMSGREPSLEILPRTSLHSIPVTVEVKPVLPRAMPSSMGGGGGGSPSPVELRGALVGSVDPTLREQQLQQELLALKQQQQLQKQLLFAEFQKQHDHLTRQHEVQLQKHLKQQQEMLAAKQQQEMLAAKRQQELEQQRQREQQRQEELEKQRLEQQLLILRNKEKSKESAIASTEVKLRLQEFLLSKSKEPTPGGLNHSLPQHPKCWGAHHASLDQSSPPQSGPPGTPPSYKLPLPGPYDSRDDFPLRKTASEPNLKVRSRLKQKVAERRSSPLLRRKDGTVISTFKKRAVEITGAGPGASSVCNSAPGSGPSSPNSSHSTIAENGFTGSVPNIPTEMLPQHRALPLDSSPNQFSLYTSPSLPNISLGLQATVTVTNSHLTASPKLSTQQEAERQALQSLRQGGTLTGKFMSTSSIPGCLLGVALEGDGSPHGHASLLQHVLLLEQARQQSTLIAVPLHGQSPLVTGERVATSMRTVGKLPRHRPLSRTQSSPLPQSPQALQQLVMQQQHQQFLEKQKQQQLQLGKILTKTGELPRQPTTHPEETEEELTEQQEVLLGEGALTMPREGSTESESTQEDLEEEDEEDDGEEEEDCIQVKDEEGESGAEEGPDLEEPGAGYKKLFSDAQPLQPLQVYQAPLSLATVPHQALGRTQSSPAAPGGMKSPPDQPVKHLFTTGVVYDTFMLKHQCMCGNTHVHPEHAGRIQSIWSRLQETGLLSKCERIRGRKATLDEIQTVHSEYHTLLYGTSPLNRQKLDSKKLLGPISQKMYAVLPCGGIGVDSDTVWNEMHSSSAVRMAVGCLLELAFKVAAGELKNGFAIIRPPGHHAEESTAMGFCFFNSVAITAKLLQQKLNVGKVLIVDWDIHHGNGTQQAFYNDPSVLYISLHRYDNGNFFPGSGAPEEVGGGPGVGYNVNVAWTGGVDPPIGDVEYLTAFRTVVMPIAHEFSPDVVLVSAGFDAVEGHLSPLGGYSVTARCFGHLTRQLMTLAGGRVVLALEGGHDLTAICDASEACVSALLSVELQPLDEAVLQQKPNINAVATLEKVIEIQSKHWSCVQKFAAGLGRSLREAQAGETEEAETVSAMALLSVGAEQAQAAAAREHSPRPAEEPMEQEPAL
Sequence of Histone deacetylase 1 (Q13547 whole entry): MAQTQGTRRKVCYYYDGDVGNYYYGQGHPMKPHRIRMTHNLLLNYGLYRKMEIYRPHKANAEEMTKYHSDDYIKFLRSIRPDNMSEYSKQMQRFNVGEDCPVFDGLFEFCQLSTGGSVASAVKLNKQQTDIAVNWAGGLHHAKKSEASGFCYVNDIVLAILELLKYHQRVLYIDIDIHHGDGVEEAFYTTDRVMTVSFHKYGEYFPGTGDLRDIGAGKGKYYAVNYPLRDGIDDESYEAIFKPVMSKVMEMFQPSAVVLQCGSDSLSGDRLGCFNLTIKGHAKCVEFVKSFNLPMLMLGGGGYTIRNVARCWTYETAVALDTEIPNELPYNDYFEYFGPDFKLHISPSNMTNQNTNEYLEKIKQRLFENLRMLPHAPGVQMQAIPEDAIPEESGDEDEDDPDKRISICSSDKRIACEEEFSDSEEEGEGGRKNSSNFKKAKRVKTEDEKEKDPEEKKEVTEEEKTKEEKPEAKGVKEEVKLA

AUC(0-t) [1]: 52.1 ng·h/mL
Vd [2]: 2.29 L/kg
IC50 (Histone deacetylase 8): 867 nM
half-life [4]: 41.9 min
IC50 (Histone deacetylase 1): 1130 nM
Tmax [7]: 20 min
inhibition [9]: Active
AUC(0-t) [10]: 202 ng·h/mL
IC50 (Histone deacetylase 3): 1840 nM
IC50 (Histone deacetylase 5): 2120 nM
half-life [14]: 20 min
Structure (SMILES): Cn1c([C@@H](Cc2ccccc2)NCc2ccccc2)nc2cc(C(=O)NO)ccc21
Activity (RPMI-8226 [3]): 18.97%
IC50 (HCCLM3): > 50000 nM
Activity (RPMI-8226 [5]): 4.26%
Activity (RPMI-8226 [6]): Active
Activity (RPMI-8226 [8]): 14.04%
Activity (RPMI-8226 [11]): inactive
Activity [12]: Non-Toxic
Activity (RPMI-8226 [13]): 39.8%
Activity [15]: Non-Toxic
